# US11576987B2, “Compositions and methods of treating melanoma” (UNIVERSITY OF IOWA RESEARCH FOUNDATION, priority 2016, dated 2023)
# Structures can show the parent of a compound that is named as a salt.
# Test system: MC1R expression
# Experiment: Real-time PCR analysis of MC1R expression in melanoma cells
# Format: cell-based, human
# Settings: substantiated by flow cytometry and radiopeptide binding
# Description: FIG. 10. Real-time PCR analysis of MC1R expression in A2058 and MEWO melanoma cells. A2058 cells were exposed to BRAFi GSK2118436, MEKi GSK1120212 and HDACi PBA for 24 h. Similarly, MEWO cells were treated with PBA and SAHA. Total RNA was isolated and reverse transcripted to cDNA. Real-time PCR was performed using 50 ng of each cDNA sample with labeled primer VIC-MC1R and FAM-NADPH. mRNA fold changes were calculated by ΔΔCt method and expressed as (n=3; Mean±SEM).
# qPCR measurements are included to measure the change in MCR1 mRNA with changes in the concentration and incubation time for each drug and combinations (FIG. 10). These experiments are carried out as in FIG. 10 according to manufacturers' protocols, cells are seeded into 6-well plates until ˜80% confluent. After drug treatments, total RNA is isolated (Qiagen RNeasy Mini Kit). 1 μg of total RNA from each cell sample is used for reverse transcription using a high capacity reverse transcription kit (Applied Biosystem). cDNA samples are kept at −80° C. until use. Upon use, cDNA templates are employed in the qRT-PCR using a Taqman Gene Expression Assay for human MC1R (Assay ID: Hs00267167_s1). Human 18S (Assay ID: Hs99999901_s1) and human GAPDH (Assay ID: Hs03929097_g1) are used as housekeeping gene controls. […] Reactions are carried out in Applied Biosystem 7900HT. mRNA level is calculated by comparative ΔΔCt method.
smiles,measurement,value
"O=C(O)CCCc1ccccc1 [PBA, 4-phenylbutyric acid, sodium salt]",MCR1 expression by RT-PCR,Enhanced expression of MCR1
